Results taken from patent US11970494B2, “6-heteroaryloxy benzimidazoles and azabenzimidazoles as JAK2 inhibitors” (Ajax Therapeutics, Inc., priority 2021, dated 2024).

Target: T1, JAK2 (JH1 domain-catalytic, Y1007F,Y1008F) kinase (Homo sapiens, UniProt O60674, Y1007F/Y1008F)
T1 construct: made in house; host or cells: transiently transfected HEK293 cells
Assay: JAK2 Binding Assay (JAK2 JH1 Domain Binding Assay)
Conditions: JAK2 JH1 domain binding, qPCR detection; read-out: JAK2 Kd

T1 sequence (O60674 849-1124 Y1007F/Y1008F limits assumed): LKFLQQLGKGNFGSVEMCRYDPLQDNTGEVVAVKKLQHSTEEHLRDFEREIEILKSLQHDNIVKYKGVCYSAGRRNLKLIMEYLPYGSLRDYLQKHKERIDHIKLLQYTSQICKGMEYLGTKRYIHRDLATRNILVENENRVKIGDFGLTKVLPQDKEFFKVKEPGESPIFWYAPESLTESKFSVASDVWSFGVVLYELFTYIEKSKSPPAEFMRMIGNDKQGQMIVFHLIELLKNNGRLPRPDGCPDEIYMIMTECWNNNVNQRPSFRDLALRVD

| Kd [nM] | SMILES |
| --- | --- |
| 10 to 50 | Cn1c(Nc2cc3n(n2)CCCC3(F)F)nc2ncc(Oc3ccnc(NC(=O)N4CCOCC4)c3)c(C#N)c21 [Example I-25, N-(4-((7-cyano-2-((4,4-difluoro-4,5,6,7-tetrahydropyrazolo[1,5-a]pyridin-2-yl)amino)-1-methyl-1H-imidazo[4,5-b]pyridin-6-yl)oxy)pyridin-2-yl)morpholine-4-carboxamide] |
| < 10 | Cn1cc(C(F)(F)F)cc(Nc2nc3ncc(Oc4ccnc(NC(=O)N5CCCC5)c4)c(C#N)c3n2C)c1=O [Example I-11, N-(4-((7-cyano-1-methyl-2-((1-methyl-2-oxo-5-(trifluoromethyl)-1,2-dihydropyridin-3-yl)amino)-1H-imidazo[4,5-b]pyridin-6-yl)oxy)pyridin-2-yl)pyrrolidine-1-carboxamide] |
| < 10 | Cn1c(Nc2cc3n(n2)CCC32CCC2)nc2ncc(Oc3ccnc(NC(=O)O[C@H]4CCOC4)c3)c(C#N)c21 [Example I-120, (S)-tetrahydrofuran-3-yl(4-((7-cyano-2-((5′,6′-dihydrospiro[cyclobutane-1,4′-pyrrolo[1,2-b]pyrazol]-2′-yl)amino)-1-methyl-1H-imidazo[4,5-b]pyridin-6-yl)oxy)pyridin-2-yl)carbamate] |
| < 10 | COCC(=O)Nc1cc(Oc2cnc3nc(Nc4cc(C(F)(F)F)n(C5CC6(CCOCC6)C5)n4)n(C)c3c2C#N)ccn1 [Example I-110, N-(4-((2-((1-(7-oxaspiro[3.5]nonan-2-yl)-5-(trifluoromethyl)-1H-pyrazol-3-yl)amino)-7-cyano-1-methyl-1H-imidazo[4,5-b]pyridin-6-yl)oxy)pyridin-2-yl)-2-methoxyacetamide] |
| < 10 | CC(=O)Nc1cc(Oc2cnc3nc(Nc4cc(COC5CN(C)C5)cc(C(F)(F)F)c4)n(C)c3c2Cl)ccn1 [Example I-101, N-(4-((7-chloro-1-methyl-2-((3-(((1-methylazetidin-3-yl)oxy)methyl)-5-(trifluoromethyl)phenyl)amino)-1H-imidazo[4,5-b]pyridin-6-yl)oxy)pyridin-2-yl)acetamide] |
| < 10 | COC(=O)Nc1cc(Oc2cnc3nc(Nc4cc5n(n4)CCN5C(C)(C)C)n(C)c3c2C#N)ccn1 [Example I-71, methyl(4-((2-((1-(tert-butyl)-2,3-dihydro-1H-imidazo[1,2-b]pyrazol-6-yl)amino)-7-cyano-1-methyl-1H-imidazo[4,5-b]pyridin-6-yl)oxy)pyridin-2-yl)carbamate] |
| < 10 | Cn1c(Nc2cc3n(n2)CCCC3(F)F)nc2ncc(Oc3ccnc(NC(=O)N4CC(O)C4)c3)c(C#N)c21 [Example I-35, N-(4-((7-cyano-2-((4,4-difluoro-4,5,6,7-tetrahydropyrazolo[1,5-a]pyridin-2-yl)amino)-1-methyl-1H-imidazo[4,5-b]pyridin-6-yl)oxy)pyridin-2-yl)-3-hydroxyazetidine-1-carboxamide] |
| 10 to 50 | COC(=O)Nc1cc(Oc2cnc3nc(Nc4cc(C(F)(F)F)n(C5CC6(COC6)C5)n4)n(C)c3c2C#N)ccn1 [Example I-31, Methyl(4-((2-((1-(2-oxaspiro[3.3]heptan-6-yl)-5-(trifluoromethyl)-1H-pyrazol-3-yl)amino)-7-cyano-1-methyl-1H-imidazo[4,5-b]pyridin-6-yl)oxy)pyridin-2-yl)carbamate] |
| 10 to 50 | CN1CCN(C(=O)Nc2cc(Oc3cnc4nc(Nc5cc6n(n5)CCCC6(F)F)n(C)c4c3C#N)ccn2)CC1 [Example I-24, N-(4-((7-cyano-2-((4,4-difluoro-4,5,6,7-tetrahydropyrazolo[1,5-a]pyridin-2-yl)amino)-1-methyl-1H-imidazo[4,5-b]pyridin-6-yl)oxy)pyridin-2-yl)-4-methylpiperazine-1-carboxamide] |
| < 10 | CC(=O)Nc1cc(Oc2cnc3nc(Nc4ccc(CN(C)C)c(C(F)(F)F)c4)n(C)c3c2Cl)ccn1 [Example I-94, N-(4-((7-chloro-2-((4-((dimethylamino)methyl)-3-(trifluoromethyl)phenyl)amino)-1-methyl-1H-imidazo[4,5-b]pyridin-6-yl)oxy)pyridin-2-yl)acetamide] |
| < 10 | [2H]C([2H])([2H])n1cc(C(F)(F)F)cc(Nc2nc3ncc(Oc4ccnc(NC(C)=O)c4)c(Cl)c3n2C)c1=O [Example I-82, N-(4-((7-chloro-1-methyl-2-((1-(methyl-d3)-2-oxo-5-(trifluoromethyl)-1,2-dihydropyridin-3-yl)amino)-1H-imidazo[4,5-b]pyridin-6-yl)oxy)pyridin-2-yl)acetamide] |
| < 10 | COC(=O)Nc1cc(Oc2cnc3nc(Nc4cc5n(n4)CCOCC5(C)C)n(C)c3c2C#N)ccn1 [Example I-68, methyl(4-((7-cyano-2-((4,4-dimethyl-4,5,7,8-tetrahydropyrazolo[1,5-d][1,4]oxazepin-2-yl)amino)-1-methyl-1H-imidazo[4,5-b]pyridin-6-yl)oxy)pyridin-2-yl)carbamate] |
| 10 to 50 | CC(=O)Nc1cc(Oc2cnc3nc(Nc4cc(C(F)(F)F)n(C5CC6(COC6)C5)n4)n(C)c3c2C#N)ccn1 [Example I-106, N-(4-((2-((1-(2-oxaspiro[3.3]heptan-6-yl)-5-(trifluoromethyl)-1H-pyrazol-3-yl)amino)-7-cyano-1-methyl-1H-imidazo[4,5-b]pyridin-6-yl)oxy)pyridin-2-yl)acetamide] |
| < 10 | Cn1c(Nc2cc3n(n2)CCCC3(F)F)nc2ncc(Oc3ccnc(NC(=O)N4CC[C@@H](O)C4)c3)c(C#N)c21 [Example I-28, (R)-N-(4-((7-cyano-2-((4,4-difluoro-4,5,6,7-tetrahydropyrazolo[1,5-c]pyridin-2-yl)amino)-1-methyl-1H-imidazo[4,5-b]pyridin-6-yl)oxy)pyridin-2-yl)-3-hydroxypyrrolidine-1-carboxamide] |
| < 10 | COC(=O)Nc1cc(Oc2cnc3nc(Nc4cc5n(n4)CCOC5(C)C)n(C)c3c2C#N)ccn1 [Example I-43, Methyl(4-((7-cyano-2-((4,4-dimethyl-6,7-dihydro-4H-pyrazolo[5,1-c][1,4]oxazin-2-yl)amino)-1-methyl-1H-imidazo[4,5-b]pyridin-6-yl)oxy)pyridin-2-yl)carbamate] |
| < 10 | COCCOC(=O)Nc1cc(Oc2cnc3nc(Nc4cc5n(n4)CCCC5(F)F)n(C)c3c2C#N)ccn1 [Example I-32, 2-Methoxyethyl(4-((7-cyano-2-((4,4-difluoro-4,5,6,7-tetrahydropyrazolo[1,5-a]pyridin-2-yl)amino)-1-methyl-1H-imidazo[4,5-b]pyridin-6-yl)oxy)pyridin-2-yl)carbamate] |
| < 10 | Cn1c(Nc2cc3n(n2)CCOC3(C)C)nc2ncc(Oc3ccnc(NC(=O)N4CCCC4)c3)c(C#N)c21 [Example I-45, N-(4-((7-cyano-2-((4,4-dimethyl-6,7-dihydro-4H-pyrazolo[5,1-c][1,4]oxazin-2-yl)amino)-1-methyl-1H-imidazo[4,5-b]pyridin-6-yl)oxy)pyridin-2-yl)pyrrolidine-1-carboxamide] |
| < 10 | CC(=O)Nc1cc(Oc2cnc3nc(Nc4ccc(CN(C)C)c(C(F)(F)F)c4)n(C)c3c2C#N)ccn1 [Example I-105, N-(4-((7-cyano-2-((4-((dimethylamino)methyl)-3-(trifluoromethyl)phenyl)amino)-1-methyl-1H-imidazo[4,5-b]pyridin-6-yl)oxy)pyridin-2-yl)acetamide] |
| < 10 | Cn1cc(C(F)(F)F)cc(Nc2nc3ncc(Oc4ccnc(NC(=O)NC5CC5)c4)c(C#N)c3n2C)c1=O [Example I-42, 1-(4-((7-cyano-1-methyl-2-((1-methyl-2-oxo-5-(trifluoromethyl)-1,2-dihydropyridin-3-yl)amino)-1H-imidazo[4,5-b]pyridin-6-yl)oxy)pyridin-2-yl)-3-cyclopropylurea] |
| < 10 | CN1CCO[C@@H](CC(=O)Nc2cc(Oc3cnc4nc(Nc5cc(C(F)(F)F)cn(C)c5=O)n(C)c4c3Cl)ccn2)C1 (single isomer, unassigned) [Example I-78-b] |
| < 10 | CC(=O)Nc1cc(Oc2cnc3nc(Nc4cc([C@@H]5CCOC5)nc(C(F)(F)F)c4)n(C)c3c2Cl)ccn1 (single isomer, unassigned) [Example I-91-b] |
| < 10 | Cn1cc(C(F)(F)F)cc(Nc2nc3ncc(Oc4ccnc(NC(=O)O[C@H]5CCOC5)c4)c(C#N)c3n2C)c1=O [Example I-17, (S)-Tetrahydrofuran-3-yl(4-((7-cyano-1-methyl-2-((1-methyl-2-oxo-5-(trifluoromethyl)-1,2-dihydropyridin-3-yl)amino)-1H-imidazo[4,5-b]pyridin-6-yl)oxy)pyridin-2-yl)carbamate] |
| < 10 | CN1CCN(C(=O)Nc2cc(Oc3cnc4nc(Nc5cc(C(F)(F)F)cn(C)c5=O)n(C)c4c3C#N)ccn2)CC1 [Example I-6, N-(4-((7-cyano-1-methyl-2-((1-methyl-2-oxo-5-(trifluoromethyl)-1,2-dihydropyridin-3-yl)amino)-1H-imidazo[4,5-b]pyridin-6-yl)oxy)pyridin-2-yl)-4-methylpiperazine-1-carboxamide] |
| < 10 | CC(=O)Nc1cc(Oc2cnc3nc(Nc4cc5n(n4)CCC54CCC4)n(C)c3c2C#N)ccn1 [Example I-113, N-(4-((7-cyano-2-((5′,6′-dihydrospiro[cyclobutane-1,4′-pyrrolo[1,2-b]pyrazol]-2′-yl)amino)-1-methyl-1H-imidazo[4,5-b]pyridin-6-yl)oxy)pyridin-2-yl)acetamide] |
| < 10 | CC(=O)Nc1cc(Oc2cnc3nc(Nc4ccc([C@H]5CCCN5C)c(C(F)(F)F)c4)n(C)c3c2Cl)ccn1 (single isomer, unassigned) [Example I-108-a] |
| < 10 | CNC(=O)Nc1cc(Oc2cnc3nc(Nc4cc5n(n4)CCN5C(C)(C)C)n(C)c3c2C#N)ccn1 [Example I-72, 1-(4-((2-((1-(tert-butyl)-2,3-dihydro-1H-imidazo[1,2-b]pyrazol-6-yl)amino)-7-cyano-1-methyl-1H-imidazo[4,5-b]pyridin-6-yl)oxy)pyridin-2-yl)-3-methylurea] |
| < 10 | CC(=O)Nc1cc(Oc2cnc3nc(Nc4cc([C@H]5CCOC5)nc(C(F)(F)F)c4)n(C)c3c2Cl)ccn1 (single isomer, unassigned) [Example I-91-a] |
